Source: US12146879B2, “Capacitive biosensor for identifying a microorganism or determining antibiotic susceptibility” (priority 2016, dated 2024)
Values after ≈ are worked out from the molar mass of the structure shown.

Tests used:
[1] = system: E. coli; experiment: Susceptibility measurement by type of antibiotic with capacitive biosensor (E. coli-specific aptamer); format: cell-based; conditions: antibiotic 100 ng/ml, 37° C., 6 hours, FIG. 8
Description: The susceptibility inspection for antibiotics was performed, after identifying an E. coli using the capacitive biosensor manufactured by treating E. coli-specific aptamer in Experimental Example 2 on the substrate manufactured according to Manufacturing Example 2.
PBS was treated as a control, each treatment was treated with cephalothin, Gentamicin, Ciprofloxacin and chloramphenicol at a concentration of 100 ng/ml, the change in capacitance with time was measured for 6 hours in an incubator at 37° C.

[2] = system: E. coli; conditions: reference value given in the method; cited from earlier work
[3] = system: Staphylococcus aureus; experiment: Minimum inhibitory concentration by real-time capacitance of capacitive biosensor; format: cell-based; conditions: Staphylococcus aureus 10^5 cells/ml grown 2 hours at 37° C.; 50, 5, 0.5, 0.05, 0.005 μg/ml; text prints 'this E. coli'
Description: (§1) In addition, Staphylococcus aureus (10^5 cells/ml) was treated with a capacitive biosensor and grown at 37° C. for 2 hours, and then was treated with antibiotic Gentamicin (MIC: ˜ […]) 50, 5, 0.5, 0.05, and 0.005 μg/ml, respectively. The degree of susceptibility was determined based on the results of the capacitance monitored in real time, and the minimum inhibitory concentration thereof was confirmed.

[4] = system: Staphylococcus aureus; conditions: reference value given in the method; cited from earlier work
[5] = system: Tetracycline-resistant E. coli; experiment: Susceptibility of antibiotic-resistant bacterium by real-time capacitance; format: cell-based; conditions: Tetracycline 2 μg/ml, Gentamicin 1 μg/ml, Ampicillin 8 μg/ml; FIG. 11 (a)
Description: (§2) In addition, Tetracycline-resistant E. coli or Ampicillin-resistant E. coli (10^5 cells/ml) was treated with a capacitive biosensor and grown at 37° C. for 2 hours, and was then treated with Tetracycline at a concentration of 2 μg/ml, Gentamicin at a concentration of 1 μg/ml, and Ampicillin at a concentration of 8 μg/ml, respectively. The degree of susceptibility was determined based on the results of the capacitance monitored in real time.

[6] = system: Ampicillin-resistant E. coli; experiment: as above; format: cell-based; conditions: Tetracycline 2 μg/ml, Gentamicin 1 μg/ml, Ampicillin 8 μg/ml; FIG. 11 (b)
Description: as §2

[7] = system: E. coli; experiment: Minimum inhibitory concentration by real-time capacitance of capacitive biosensor; format: cell-based; conditions: E. coli 10^5 cells/ml grown 2 hours at 37° C.
Description: To determine the minimum inhibitory concentration of an antibiotic, E. coli (10^5 cells/ml) was treated with a capacitive biosensor and grown at 37° C. for 2 hours, and then treated with antibiotic ceftriaxone (MIC: ˜ 30 ng/ml) at concentrations of 100, 80, 60, 40 and 20 ng/ml, respectively. The degree of susceptibility was determined based on the results of the capacitance monitored in real time, and the minimum inhibitory concentration thereof was confirmed.
as §1, with “E. coli” for “Staphylococcus aureus”, “then” for “then was”

[8] = system: Staphylococcus aureus; experiment: Identification of a microorganism: capacitance change of aptamer-fixed biosensor; format: binding; conditions: about 2 hours, 37° C., FIG. 6
Description: (§3) An experiment was conducted to confirm whether a microorganism could be identified using the biosensor produced according to Production Example 2.
(§4) Particularly, each well was treated and fixed with an aptamer specific to E. coli, Acinetobacterbaumannii, Staphylococcus aureus or Enterococcus faecalis, and media (a control group or a control) not containing a microorganism, E. coli, Acinetobacterbaumannii, Staphylococcus aureus or Enterococcus faecalis were treated with a sensor, and then the change in capacitance was measured after about 2 hours in an incubator at 37° C.

[9] = system: other microorganisms; experiment: as above; format: binding; conditions: about 2 hours, 37° C., FIG. 6
Description: as §3, §4

[10] = system: E. coli; experiment: as above; format: binding; conditions: about 2 hours, 37° C., FIG. 6
Description: as §3, §4

O=C(O)c1cn(C2CC2)c2cc(N3CCNCC3)c(F)cc2c1=O [Ciprofloxacin]
change in capacitance after the addition of antibiotics [1]: decrease in capacitance | susceptibility or resistance of the bacterium to the antibiotic [1]: susceptibility | susceptibility or resistance of the bacterium to the antibiotic ([1]; listed as ciprofloxacin): high

Gentamicin
MIC (stated with the antibiotic) [2]: 0.5 µg/mL | minimum inhibitory concentration [3]: 0.5 µg/mL | MIC (stated with the antibiotic) [4]: 0.5 µg/mL | change in capacitance value after antibiotic treatment [5]: decrease in capacitance value | change in capacitance value after antibiotic treatment [6]: decrease in capacitance value | change in capacitance after the addition of antibiotics [1]: decrease in capacitance | susceptibility or resistance of the bacterium to the antibiotic [1]: susceptibility | minimum inhibitory concentration ([7]; 50, 5, 0.5, 0.05, 0.005 μg/ml, FIG. 10): 0.5 µg/mL

CC(=O)OCC1=C(C(=O)O)N2C(=O)[C@@H](NC(=O)Cc3cccs3)[C@H]2SC1 [cephalothin]
change in capacitance after the addition of antibiotics [1]: increase in capacitance | susceptibility or resistance of the bacterium to the antibiotic [1]: resistance (tolerance)

CO/N=C(\C(=O)N[C@@H]1C(=O)N2C(C(=O)O)=C(CSc3nc(=O)c(=O)[nH]n3C)CS[C@H]12)c1csc(N)n1 [ceftriaxone]
MIC (stated with the antibiotic) [2]: ~0.03 µg/mL | MIC ([7]; Escherichia coli, 100, 80, 60, 40 and 20 ng/ml, FIG. 9): 0.04 µg/mL (≈ 0.0721 µM)

O=C(N[C@H](CO)[C@H](O)c1ccc([N+](=O)[O-])cc1)C(Cl)Cl [chloramphenicol]
change in capacitance after the addition of antibiotics [1]: increase in capacitance | susceptibility or resistance of the bacterium to the antibiotic [1]: resistance (tolerance)

B1: Staphylococcus aureus-specific aptamer: Staphylococcal aptamer, SEQ ID NO: 3, Genotech, Daejeon, Korea (nucleic acid)
chain: GCAATGGTACGGTACTTCCTCGGCACGTTCTCAGTAGCGCTCGCTGGTCATCCCACAGCTACGTCAAAAGTGCACGCTACTTTGCTAA
modifications: DNA, backbone and methylation of C not given here; deposited on substrate, further chemistry not fully specified
change in capacitance on treatment with Staphylococcus aureus [8]: large capacitance change | change in capacitance on treatment with other microorganisms [9]: did not occur significantly

B2: E. coli-specific aptamer: E. coli-specific aptamer, SEQ ID NO: 1, Genotech, Daejeon, Korea (nucleic acid)
chain: GCAATGGTACGGTACTTCCCCATGAGTGTTGTGAAATGTTGGGACACTAGGTGGCATAGAGCCGCAAAAGTGCACGCTACTTTGCTAA
modifications: DNA, backbone and methylation of C not given here; deposited on substrate, further chemistry not fully specified
change in capacitance on treatment with E. coli [10]: significantly increased | change in capacitance on treatment with other microorganisms [9]: did not occur significantly
